In patent US8946230B2, “Aryl- and heteroaryl- nitrogen-heterocyclic compounds as PDE10 inhibitors” (Amgen Inc., priority 2010, dated 2015):

biological target: T1, PDE10 (UniProt Q8CA95); experiment: PDE10 enzyme inhibition, IMAP TR-FRET assay (Example A: MPDE10A7 Enzyme Activity and Inhibition); type: biochemical; details: Table 1A, Examples 11-56; read-out: PDE10 IC50
T1 sequence (Q8CA95 1-790): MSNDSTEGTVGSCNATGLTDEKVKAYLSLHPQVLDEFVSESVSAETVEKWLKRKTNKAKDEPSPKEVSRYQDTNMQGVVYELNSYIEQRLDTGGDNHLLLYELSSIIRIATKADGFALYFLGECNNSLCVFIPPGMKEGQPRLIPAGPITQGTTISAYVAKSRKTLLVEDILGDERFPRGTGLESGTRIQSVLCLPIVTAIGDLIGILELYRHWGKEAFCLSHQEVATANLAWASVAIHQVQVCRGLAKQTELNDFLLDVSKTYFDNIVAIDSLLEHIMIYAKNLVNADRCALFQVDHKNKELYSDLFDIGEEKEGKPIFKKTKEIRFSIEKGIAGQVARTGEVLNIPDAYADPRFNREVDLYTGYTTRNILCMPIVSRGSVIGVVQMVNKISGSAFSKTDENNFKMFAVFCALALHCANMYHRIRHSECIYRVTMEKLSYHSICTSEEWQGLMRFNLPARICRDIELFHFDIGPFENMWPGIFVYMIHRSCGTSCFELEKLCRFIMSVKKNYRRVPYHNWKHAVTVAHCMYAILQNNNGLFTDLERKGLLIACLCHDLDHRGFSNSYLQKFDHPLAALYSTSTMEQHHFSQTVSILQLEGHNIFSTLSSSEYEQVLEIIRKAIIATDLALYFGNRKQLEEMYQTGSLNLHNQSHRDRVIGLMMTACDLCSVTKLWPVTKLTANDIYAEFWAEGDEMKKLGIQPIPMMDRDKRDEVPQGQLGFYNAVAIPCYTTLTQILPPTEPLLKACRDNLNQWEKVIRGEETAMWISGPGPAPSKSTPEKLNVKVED
Protocol: MPDE10A7 Enzyme Activity and Inhibition Enzyme Activity. An IMAP TR-FRET assay was used to analyze the enzyme activity (Molecular Devices Corp., Sunnyvale Calif.). 5 μL of serial diluted PDE10A (BPS Bioscience, San Diego, Calif.) or tissue homogenate was incubated with equal volumes of diluted fluorescein labeled cAMP or cGMP for 60 min in 384-well polystyrene assay plates (Corning, Corning, N.Y.) at room temperature. After incubation, the reaction was stopped by adding 60 μL of diluted binding reagents and was incubated for 3 hours to overnight at room temperature. The plates were read on an Envision (Perkin Elmer, Waltham, Mass.) for time resolved fluorescence resonance energy transfer. The data were analyzed with GraphPad Prism (La Jolla, Calif.). Enzyme Inhibition. To check the inhibition profile, 5 μL of serial diluted compounds were incubated with 5 μL of diluted PDE10 enzyme (BPS Bioscience, San Diego, Calif.) or tissue homogenate in a 384-well polystyrene assay plate (Corning, Corning, N.Y.) for 30 min at room temperature. After incubation, 10 μL of diluted fluorescein labeled cAMP or cGMP substrate were added and incubated for 60 min at room temperature. The reaction was stopped by adding 60 μL of diluted binding reagents and plates were read on an Envision (Perkin Elmer, Waltham, Mass.) for time resolved fluorescence resonance energy transfer. The data were analyzed with GraphPad Prism (La Jolla, Calif.).

| SMILES | IC50 [nM] |
| --- | --- |
| Cc1ccc2[nH]c(C3CN(c4nccnc4N4CCOCC4)C3)nc2c1 [Example 46, 4-(3-(3-(5-methyl-1H-benzo[d]imidazol-2-yl)azetidin-1-yl)pyrazin-2-yl)morpholine] | 600 |
| Clc1ccc2[nH]c(C3CN(c4nccnc4N4CCCCC4)C3)nc2c1 [Example 44, 5-chloro-2-(1-(3-(piperidin-1-yl)pyrazin-2-yl)azetidin-3-yl)-1H-benzo[d]imidazole] | 920 |
| Clc1ccc2[nH]c(C3CN(c4nccnc4Oc4ccccc4)C3)nc2c1 [Example 42, 5-chloro-2-(1-(3-phenoxypyrazin-2-yl)azetidin-3-yl)-1H-benzo[d]imidazole] | 80.9 |
| O=C(Nc1ccccc1)c1cccnc1N1CC(c2nc3cc(Cl)ccc3[nH]2)C1 [Example 18, 2-[3-(5-chloro-1H-benzoimidazol-2-yl)-azetidin-1-yl]-N-phenyl-nicotinamide] | 2600 |
| O=C(NC[C@@H]1CCCO1)c1nccnc1N1CC(c2nc3cc(Cl)ccc3[nH]2)C1 [Example 38, 3-[3-(5-chloro-1H-benzoimidazol-2-yl)-azetidin-1-yl]-pyrazine-2-carboxylic acid (tetrahydro-furan-2-ylmethyl)-amide] | 2150 |
| Clc1ccc2[nH]c(C3CN(c4ncccc4Cl)C3)nc2c1 [Example 54, 5-chloro-2-(1-(3-chloropyridin-2-yl)azetidin-3-yl)-1H-benzo[d]imidazole] | 7.81 |
| c1ccc(-c2nccnc2N2CCC(c3nc4cc(C5CC5)ccc4[nH]3)CC2)cc1 [Example 13, 5-Cyclopropyl-2-[1-(3-phenyl-pyrazin-2-yl)-piperidin-4-yl]-1H-benzoimidazole] | 277 |
| CC(C)CNC(=O)c1cccnc1N1CC(c2nc3cc(Cl)ccc3[nH]2)C1 [Example 22, 2-[3-(5-chloro-1H-benzoimidazol-2-yl)-azetidin-1-yl]-N-isobutyl-nicotinamide] | 2230 |
| COc1nccnc1N1CC(c2nc3cc(Cl)ccc3[nH]2)C1 [Example 45, 5-chloro-2-(1-(3-methoxypyrazin-2-yl)azetidin-3-yl)-1H-benzo[d]imidazole] | 499 |

Now from value to compound:

| IC50 [nM] | SMILES |
| --- | --- |
| 2530 | O=C(NC[C@H]1CCCO1)c1nccnc1N1CC(c2nc3cc(Cl)ccc3[nH]2)C1 [Example 37, 3-[3-(5-chloro-1H-benzoimidazol-2-yl)-azetidin-1-yl]-pyrazine-2-carboxylic acid (tetrahydro-furan-2-ylmethyl)-amide] |
| 168 | Clc1ccc2[nH]c(C3CN(c4ncccc4OC4CCOCC4)C3)nc2c1 [Example 49, 5-chloro-2-(1-(3-(tetrahydro-2H-pyran-4-yloxy)pyridin-2-yl)azetidin-3-yl)-1H-benzo[d]imidazole] |
| 10000 | CN(C)C(=O)c1nccnc1N1CC(c2nc3cc(Cl)ccc3[nH]2)C1 [Example 35, 3-[3-(5-chloro-1H-benzoimidazol-2-yl)-azetidin-1-yl]-pyrazine-2-carboxylic acid dimethylamide] |
| 1820 | Clc1ccc2[nH]c(C3CN(c4ncccc4Br)C3)nc2c1 [Example 52, 2-(1-(3-bromopyridin-2-yl)azetidin-3-yl)-5-chloro-1H-benzo[d]imidazole] |
| 141 | Clc1ccc(-c2nccnc2N2CC(c3nc4cc(Cl)ccc4[nH]3)C2)cc1 [Example 32, 5-chloro-2-{1-[3-(4-chloro-phenyl)-pyrazin-2-yl]-azetidin-3-yl}-1H-benzoimidazole] |
| 310 | N#Cc1ccc2[nH]c(C3CCN(c4ncccc4Cl)C3)nc2c1 (stereo not shown) [Example 11, 2-[1-(3-chloro-pyridin-2-yl)-pyrrolidin-3-yl]-1H-benzoimidazole-5-carbonitrile] |
| 80.6 | Cc1ccccc1-c1nccnc1N1CC(c2nc3cc(Cl)ccc3[nH]2)C1 [Example 24, 5-chloro-2-[1-(3-o-tolyl-pyrazin-2-yl)-azetidin-3-yl]-1H-benzoimidazole] |
| 58.6 | Clc1ccc2[nH]c(C3CN(c4nccnc4-c4ccccc4Cl)C3)nc2c1 [Example 30, 5-chloro-2-{1-[3-(2-chloro-phenyl)-pyrazin-2-yl]-azetidin-3-yl}-1H-benzoimidazole] |
| 110 | COc1ccc(-c2nccnc2N2CC(c3nc4cc(Cl)ccc4[nH]3)C2)cc1 [Example 29, 5-chloro-2-{1-[3-(4-methoxy-phenyl)-pyrazin-2-yl]-azetidin-3-yl}-1H-benzoimidazole] |
| 3840 | Cc1ccc2[nH]c(C3CN(c4ncccc4Cl)C3)nc2c1 [Example 47, 2-(1-(3-chloropyridin-2-yl)azetidin-3-yl)-5-methyl-1H-benzo[d]imidazole] |
| 134 | Cc1ccc(-c2nccnc2N2CC(c3nc4cc(Cl)ccc4[nH]3)C2)cc1 [Example 26, 5-chloro-2-[1-(3-p-tolyl-pyrazin-2-yl)-azetidin-3-yl]-1H-benzoimidazole] |
| 461 | N#Cc1ccc2[nH]c(C3CCN(c4nccnc4-c4ccccc4)C3)nc2c1 (stereo not shown) [Example 15, 2-[1-(3-phenyl-pyrazin-2-yl)-pyrrolidin-3-yl]-1H-benzoimidazole-5-carbonitrile] |
| 119 | Clc1cccc(-c2nccnc2N2CC(c3nc4cc(Cl)ccc4[nH]3)C2)c1 [Example 31, 5-chloro-2-{1-[3-(3-chloro-phenyl)-pyrazin-2-yl]-azetidin-3-yl}-1H-benzoimidazole] |
| 134 | Clc1ccc2[nH]c(C3CN(c4nccnc4-c4ccncc4)C3)nc2c1 [Example 34, 5-chloro-2-[1-(3-pyridin-4-yl-pyrazin-2-yl)-azetidin-3-yl]-1H-benzoimidazole] |

same assay, conditions: Table 2A, Examples 61-64; read-out: IC50

| IC50 [nM] | SMILES |
| --- | --- |
| 17.5 | COc1cccc(-c2nccnc2N2CC(c3ccc4ccccc4n3)C2)c1 [Example 64, 2-{1-[3-(3-Methoxy-phenyl)-pyrazin-2-yl]-azetidin-3-yl}-quinoline] |

same assay, conditions: read-out: IC50

| SMILES | IC50 [nM] |
| --- | --- |
| Clc1ccc2[nH]c(C3CN(c4cc(OC5CCOCC5)ccn4)C3)nc2c1 [Example 5, 5-CHLORO-2-(1-(4-(TETRAHYDRO-2H-PYRAN-4-YLOXY)PYRIDIN-2-YL)AZETIDIN-3-YL)-1H-BENZO[D]IMIDAZOLE] | 1090 |
| Cc1ccc2[nH]c(C3CN(c4c(Cl)cncc4-c4ccccc4)C3)nc2c1 [Example 2B, 2-[1-(3-CHLORO-5-PHENYL-PYRIDIN-4-YL)-AZETIDIN-3-YL]-5-METHYL-1H-BENZOIMIDAZOLE] | 22 |
| Clc1ccc2[nH]c(C3CN(c4cc(C5CCOCC5)ccn4)C3)nc2c1 [Example 9, 5-CHLORO-2-(1-(4-(TETRAHYDRO-2H-PYRAN-4-YL)PYRIDIN-2-YL)AZETIDIN-3-YL)-1H-BENZO[D]IMIDAZOLE] | 1170 |
| COc1cccc(-c2cccnc2N2CC(c3ccc4ccccc4n3)C2)c1 [Example 60, 2-{1-[3-(3-METHOXY-PHENYL)-PYRIDIN-2-YL]-AZETIDIN-3-YL}-QUINOLINE] | 6820 |
| N#Cc1ccc2[nH]c(C3CCN(c4nccnc4-c4ccccc4)CC3)nc2c1 [Example 1A, 2-[1-(3-PHENYL-PYRAZIN-2-YL)-PIPERIDIN-4-YL]-1H-BENZOIMIDAZOLE-5-CARBONITRILE] | 272 |
| Clc1ccc2[nH]c(C3CN(c4nc(N5CCOCC5)ncc4Cl)C3)nc2c1 [Example 7, 4-(5-CHLORO-4-(3-(5-CHLORO-1H-BENZO[D]IMIDAZOL-2-YL)AZETIDIN-1-YL)PYRIMIDIN-2-YL)MORPHOLINE] | 155 |

Next, values leading:

| IC50 [nM] | SMILES |
| --- | --- |
| 7.61 | Cc1cccc(-c2nccnc2N2CC(c3ccc4ccccc4n3)C2)c1 [Example 58, 2-[1-(3-M-TOLYL-PYRAZIN-2-YL)-AZETIDIN-3-YL]-QUINOLINE] |
| 210 | Cc1ccc2[nH]c(C3CN(c4c(Cl)cncc4Cl)C3)nc2c1 [Example 2A, 2-[1-(3,5-DICHLORO-PYRIDIN-4-YL)-AZETIDIN-3-YL]-5-METHYL-1H-BENZOIMIDAZOLE] |
| 239 | Cc1ccc2[nH]c(C3CN(c4nccnc4OC4CCOCC4)C3)nc2c1 [Example 1C, 5-METHYL-2-(1-(3-(TETRAHYDRO-2H-PYRAN-4-YLOXY)PYRAZIN-2-YL)AZETIDIN-3-YL)-1H-BENZO[D]IMIDAZOLE] |
| 900 | Clc1ccc2[nH]c(C3CN(c4nccnc4OC4CCOCC4)C3)nc2c1 [Example 10, 5-CHLORO-2-(1-(3-(TETRAHYDRO-2H-PYRAN-4-YLOXY)PYRAZIN-2-YL)AZETIDIN-3-YL)-1H-BENZO[D]IMIDAZOLE] |
